Laboratory results published in ChEMBL document CHEMBL5512665, “A CARM1 Inhibitor Potently Suppresses Breast Cancer Both In Vitro and In Vivo” (J Med Chem, 2024).
Activity calls are given as the source filed them. The rule behind the calls is not given here.

Legend:
[1] = Toxicity in BALB/C mouse xenografted with human MDA-MB-231 cells assessed as change in heart morphology at 50 mg/kg,ip administrated daily for 11 days; assay type: organism-based; conditions: in vivo, 264 h, time 11 day
4T1 [2] = experiment: Antitumor activity against mouse 4T1 cells implanted in BALB/C mouse assessed as downregulation of TFF1 gene expression at 25 mg/kg,ip administrated daily for 14 days by RT-qPCR analysis; assay type: functional, organism-based; conditions: time 14.0 day
[3] = Toxicity in BALB/C mouse implanted with mouse 4T1 cells assessed as change in liver morphology at 25 mg/kg,ip administrated daily for 14 days; assay type: organism-based; conditions: in vivo, 336 h, time 14 day
4T1 [4] = experiment: Potentiation of etoposide induced antitumor activity against mouse 4T1 cells implanted in BALB/C mouse assessed as upregulation of DDX58 gene expression at 25 mg/kg,ip administrated daily for 12 days in presence of 8 mg/kg etoposide administration by RT-qPCR analysis; assay type: functional, organism-based; conditions: time 12.0 day
4T1 [5] = experiment: Antitumor activity against mouse 4T1 cells implanted in BALB/C mouse assessed as downregulation of PGR gene expression at 50 mg/kg,ip administrated daily for 14 days by RT-qPCR analysis; assay type: functional, organism-based; conditions: time 14.0 day
MCF7 [6] = experiment: Antitumor activity against human MCF7 cells xenografted in BALB/C mouse assessed as downregulation of NRIP1 gene expression at 50 mg/kg,ip administrated every other day for 29 days by RT-qPCR analysis; assay type: functional, organism-based; conditions: time 29.0 day
MCF7 [7] = experiment: Synergistic antiproliferative activity against human MCF7 cells assessed as downregulation of FOXC1 gene expression at 2.5 uM incubated for 6 hrs in presence of tamoxifen by RT-qPCR analysis; assay type: functional, cell-based
[8] = Toxicity in BALB/C mouse xenografted with human MDA-MB-231 cells assessed as change in spleen morphology at 50 mg/kg,ip administrated daily for 11 days; assay type: organism-based; conditions: in vivo, 264 h, time 11 day
4T1 [9] = experiment: Potentiation of etoposide induced antitumor activity against mouse 4T1 cells implanted in BALB/C mouse assessed as upregulation of CD8A expression at 25 mg/kg,ip administrated daily for 12 days in presence of 8 mg/kg etoposide administration by immunohistochemical staining based analysis; assay type: functional, organism-based; conditions: time 12.0 day
MCF7 [10] = experiment: Antitumor activity against human MCF7 cells xenografted in BALB/C mouse assessed as upregulation of DDX58 gene expression at 50 mg/kg,ip administrated every other day for 29 days by RT-qPCR analysis; assay type: functional, organism-based; conditions: time 29.0 day
[11] = Toxicity in BALB/C mouse xenografted with human MDA-MB-231 cells assessed as change in spleen morphology at 25 mg/kg,ip administrated daily for 11 days; assay type: organism-based; conditions: in vivo, 264 h, time 11 day
MCF7 [12] = experiment: Potentiation of etoposide induced antiproliferative activity against human MCF7 cells assessed as upregulation of CCL5 gene expression at 2.5 uM in presence of etoposide by RT-qPCR analysis; assay type: functional, cell-based
4T1 [13] = experiment: Antitumor activity against mouse 4T1 cells implanted in BALB/C mouse assessed as inhibition of tumor size at 50 mg/kg,ip administrated daily for 14 days; assay type: functional, organism-based; conditions: time 14.0 day
MCF7 [14] = experiment: Synergistic antiproliferative activity against human MCF7 cells assessed as downregulation of TFF1 gene expression at 2.5 uM incubated for 6 hrs in presence of fulvestrant by RT-qPCR analysis; assay type: functional, cell-based
[15] = Toxicity in BALB/C mouse implanted with mouse 4T1 cells assessed as change in lung morphology at 25 mg/kg,ip administrated daily for 14 days; assay type: organism-based; conditions: in vivo, 336 h, time 14 day
4T1 [16] = experiment: Antitumor activity against mouse 4T1 cells implanted in BALB/C mouse assessed as upregulation of CD8A expression at 25 mg/kg,ip administrated daily for 14 days by immunohistochemical staining based analysis; assay type: functional, organism-based; conditions: time 14.0 day
[17] = Toxicity in BALB/C mouse xenografted with human MDA-MB-231 cells assessed as change in liver morphology at 25 mg/kg,ip administrated daily for 11 days; assay type: organism-based; conditions: in vivo, 264 h, time 11 day
MCF7 [18] = experiment: Synergistic antiproliferative activity against human MCF7 cells assessed as downregulation of N-Myc gene expression at 2.5 uM incubated for 6 hrs in presence of fulvestrant by RT-qPCR analysis; assay type: functional, cell-based
MCF7 [19] = experiment: Antitumor activity against human MCF7 cells xenografted in BALB/C mouse assessed as upregulation of IFNalpha gene expression at 50 mg/kg,ip administrated every other day for 29 days by RT-qPCR analysis; assay type: functional, organism-based; conditions: time 29.0 day
[20] = Toxicity in BALB/C mouse implanted with mouse 4T1 cells assessed as change in kidney morphology at 25 mg/kg,ip administrated daily for 14 days; assay type: organism-based; conditions: in vivo, 336 h, time 14 day
[21] = Toxicity in BALB/C mouse implanted with mouse 4T1 cells assessed as change in kidney morphology at 50 mg/kg,ip administrated daily for 14 days; assay type: organism-based; conditions: in vivo, 336 h, time 14 day
MDA-MB-231 = experiment: Antitumor activity against human MDA-MB-231 cells xenografted in BALB/C mouse assessed as reduction of tumor weight at 50 mg/kg,ip administrated daily for 11 days; assay type: functional, organism-based; conditions: time 11.0 day
4T1 [22] = experiment: Antitumor activity against mouse 4T1 cells implanted in BALB/C mouse assessed as downregulation of C-Myc gene expression at 25 mg/kg,ip administrated daily for 14 days by RT-qPCR analysis; assay type: functional, organism-based; conditions: time 14.0 day
MCF7 [23] = experiment: Synergistic antitumor activity against human MCF7 cells xenografted in BALB/C mouse assessed as downregulation of GREB1 gene expression at 25 mg/kg,ip administrated every other day for 15 days in presence of 5 mg/kg tamoxifen oral administration by RT-qPCR analysis; assay type: functional, organism-based; conditions: time 15.0 day
[24] = Toxicity in BALB/C mouse xenografted with human MCF7 cells assessed as change in kidney morphology at 25 mg/kg,ip administrated every other day for 29 days; assay type: organism-based; conditions: in vivo, 696 h, time 29 day
4T1 [25] = experiment: Antitumor activity against mouse 4T1 cells implanted in BALB/C mouse assessed as downregulation of TFF1 gene expression at 50 mg/kg,ip administrated daily for 14 days by RT-qPCR analysis; assay type: functional, organism-based; conditions: time 14.0 day
4T1 [26] = experiment: Potentiation of etoposide induced antiproliferative activity against mouse 4T1 cells assessed as upregulation of IFIT1 gene expression at 2.5 uM in presence of etoposide by RT-qPCR analysis; assay type: functional, cell-based
MCF7 [27] = experiment: Synergistic antiproliferative activity against human MCF7 cells assessed as inhibition of cell growth at 2.5 uM incubated for 7 days in presence of fulvestrant by celltiter 96 aqueous one solution cell proliferation assay; assay type: functional, cell-based; conditions: time 7.0 day
MCF7 [28] = experiment: Antitumor activity against human MCF7 cells xenografted in BALB/C mouse assessed as downregulation of TFF1 gene expression at 25 mg/kg,ip administrated every other day for 29 days by RT-qPCR analysis; assay type: functional, organism-based; conditions: time 29.0 day
[29] = Toxicity in BALB/C mouse xenografted with human MDA-MB-231 cells assessed as change in kidney morphology at 50 mg/kg,ip administrated daily for 11 days; assay type: organism-based; conditions: in vivo, 264 h, time 11 day
MCF7 [30] = experiment: Antitumor activity against human MCF7 cells xenografted in BALB/C mouse assessed as upregulation of IFIT1 gene expression at 25 mg/kg,ip administrated every other day for 29 days by RT-qPCR analysis; assay type: functional, organism-based; conditions: time 29.0 day
[31] = Toxicity in BALB/C mouse xenografted with human MCF7 cells assessed as change in liver morphology at 25 mg/kg,ip administrated every other day for 29 days; assay type: organism-based; conditions: in vivo, 696 h, time 29 day
MCF7 [32] = experiment: Antitumor activity against human MCF7 cells xenografted in BALB/C mouse assessed as inhibition of tumor growth at 25 mg/kg,ip administrated every other day for 29 days; assay type: functional, organism-based; conditions: time 29.0 day

In the case of `Cc1ccc(-c2nc(N3CCN(CCN(C)C)CC3)ncc2-c2ccoc2)cc1.Cl.Cl`, the Activity [1] is reported as “Non-Toxic”, the Activity (4T1 [2]) is reported as “Active” and the Activity [3] is reported as “Non-Toxic”. The Activity (4T1 [4]) was “Active”, the Activity (4T1 [5]) was “Active” and the Activity (MCF7 [6]) was “Active”. For the same compound, the Activity (MCF7 [7]) was “Active”, the Activity [8] was “Non-Toxic” and the Activity (4T1 [9]) was “Active”. The Activity (MCF7 [10]) was “Active”, the Activity [11] was “Non-Toxic” and the Activity (MCF7 [12]) was “Active”. For the same compound, the Activity (4T1 [13]) was “Active”, the Activity (MCF7 [14]) was “Active” and the Activity [15] was “Non-Toxic”. The Activity (4T1 [16]) was “Active”, the Activity [17] was “Non-Toxic” and the Activity (MCF7 [18]) was “Active”. The Activity (MCF7 [19]) was “Active”, the Activity [20] was “Non-Toxic” and the Activity [21] was “Non-Toxic”. The Activity (MDA-MB-231) was “Active”, the Activity (4T1 [22]) was “Active” and the Activity (MCF7 [23]) was “Active”. The Activity [24] was “Non-Toxic”, the Activity (4T1 [25]) was “Active” and the Activity (4T1 [26]) was “Active”. The Activity (MCF7 [27]) was “Active”, the Activity (MCF7 [28]) was “Active” and the Activity [29] was “Non-Toxic”. The Activity (MCF7 [30]) was “Active”, the Activity [31] was “Non-Toxic” and the Activity (MCF7 [32]) was “Active”.
